Data taken from the kinase profiling compilation of Christmann-Franck et al. (2016).

Assays:
Assay in all cases: radiometric filter-binding kinase assay, Kinase HotSpot
Settings in all cases: compound 0.5 µM; ATP 10 µM
ACVR1 (human) = ACVR1 (human) (UniProt Q04771)
IKBKB (human) = IKBKB (human) (UniProt O14920)
ITK (human) = ITK (human) (UniProt Q08881)
PIM2 (human) = PIM2 (human) (UniProt Q9P1W9)
CDC42BPB (human) = CDC42BPB (human) (UniProt Q9Y5S2)
CHUK (human) = CHUK (human) (UniProt O15111)
STK38 (human) = STK38 (human) (UniProt Q15208)
ROCK2 (human) = ROCK2 (human) (UniProt O75116)
LRRK2 (human) = LRRK2 (human) (UniProt Q5S007)
ULK1 (human) = ULK1 (human) (UniProt O75385)
PRKCI (human) = PRKCI (human) (UniProt P41743)
DYRK1A (human) = DYRK1A (human) (UniProt Q13627)
NEK9 (human) = NEK9 (human) (UniProt Q8TD19)
CAMK1G (human) = CAMK1G (human) (UniProt Q96NX5)
ADRBK2 (human) = ADRBK2 (human) (UniProt P35626)
DAPK3 (human) = DAPK3 (human) (UniProt O43293)
TLK2 (human) = TLK2 (human) (UniProt Q86UE8)
ADRBK1 (human) = ADRBK1 (human) (UniProt P25098)
CDK1 CCNB1 (human) = CDK1 CCNB1 (human) (UniProt P06493+P14635)
NTRK1 (human) = NTRK1 (human) (UniProt P04629)
SGK3 (human) = SGK3 (human) (UniProt Q96BR1)
STK3 (human) = STK3 (human) (UniProt Q13188)
NEK6 (human) = NEK6 (human) (UniProt Q9HC98)
PDPK1 (human) = PDPK1 (human) (UniProt O15530)
STK10 (human) = STK10 (human) (UniProt O94804)
EPHB3 (human) = EPHB3 (human) (UniProt P54753)
EPHA6 (human) = EPHA6 (human) (UniProt Q9UF33)
PRKACG (human) = PRKACG (human) (UniProt P22612)
TNK2 (human) = TNK2 (human) (UniProt Q07912)
MAP2K1 (human) = MAP2K1 (human) (UniProt Q02750)
DYRK2 (human) = DYRK2 (human) (UniProt Q92630)
FGR (human) = FGR (human) (UniProt P09769)
PAK1 (human) = PAK1 (human) (UniProt Q13153)
TXK (human) = TXK (human) (UniProt P42681)
ERBB2 (human) = ERBB2 (human) (UniProt P04626)
ABL1 (human) = ABL1 (human) (UniProt P00519)
RET (human) = RET (human) (UniProt P07949)
ULK3 (human) = ULK3 (human) (UniProt Q6PHR2)
MYO3B (human) = MYO3B (human) (UniProt Q8WXR4)
TSSK2 (human) = TSSK2 (human) (UniProt Q96PF2)
BRAF (human) = BRAF (human) (UniProt P15056)
Sequence of BRAF (human) (P15056 whole entry, looked up): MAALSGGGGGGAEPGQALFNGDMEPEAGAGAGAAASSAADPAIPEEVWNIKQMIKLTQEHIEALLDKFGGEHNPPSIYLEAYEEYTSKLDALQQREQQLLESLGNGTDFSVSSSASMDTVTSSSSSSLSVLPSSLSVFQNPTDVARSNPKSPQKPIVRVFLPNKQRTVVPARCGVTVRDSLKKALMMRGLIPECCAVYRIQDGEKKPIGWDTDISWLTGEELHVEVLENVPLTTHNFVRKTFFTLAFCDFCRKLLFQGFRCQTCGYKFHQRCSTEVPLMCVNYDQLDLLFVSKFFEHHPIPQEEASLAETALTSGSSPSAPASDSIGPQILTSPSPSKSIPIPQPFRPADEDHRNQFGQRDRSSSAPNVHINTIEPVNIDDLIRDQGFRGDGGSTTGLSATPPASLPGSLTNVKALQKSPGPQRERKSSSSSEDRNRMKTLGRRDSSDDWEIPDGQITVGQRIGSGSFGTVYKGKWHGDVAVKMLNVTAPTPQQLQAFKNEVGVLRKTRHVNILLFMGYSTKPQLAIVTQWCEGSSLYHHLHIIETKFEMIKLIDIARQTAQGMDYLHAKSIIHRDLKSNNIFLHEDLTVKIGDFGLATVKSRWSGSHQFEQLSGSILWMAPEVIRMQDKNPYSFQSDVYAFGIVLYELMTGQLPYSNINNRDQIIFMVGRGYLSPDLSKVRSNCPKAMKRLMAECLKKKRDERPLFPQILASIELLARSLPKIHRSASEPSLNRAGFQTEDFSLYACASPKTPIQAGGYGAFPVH

Sequence of ERBB2 (human) (P04626 whole entry, looked up): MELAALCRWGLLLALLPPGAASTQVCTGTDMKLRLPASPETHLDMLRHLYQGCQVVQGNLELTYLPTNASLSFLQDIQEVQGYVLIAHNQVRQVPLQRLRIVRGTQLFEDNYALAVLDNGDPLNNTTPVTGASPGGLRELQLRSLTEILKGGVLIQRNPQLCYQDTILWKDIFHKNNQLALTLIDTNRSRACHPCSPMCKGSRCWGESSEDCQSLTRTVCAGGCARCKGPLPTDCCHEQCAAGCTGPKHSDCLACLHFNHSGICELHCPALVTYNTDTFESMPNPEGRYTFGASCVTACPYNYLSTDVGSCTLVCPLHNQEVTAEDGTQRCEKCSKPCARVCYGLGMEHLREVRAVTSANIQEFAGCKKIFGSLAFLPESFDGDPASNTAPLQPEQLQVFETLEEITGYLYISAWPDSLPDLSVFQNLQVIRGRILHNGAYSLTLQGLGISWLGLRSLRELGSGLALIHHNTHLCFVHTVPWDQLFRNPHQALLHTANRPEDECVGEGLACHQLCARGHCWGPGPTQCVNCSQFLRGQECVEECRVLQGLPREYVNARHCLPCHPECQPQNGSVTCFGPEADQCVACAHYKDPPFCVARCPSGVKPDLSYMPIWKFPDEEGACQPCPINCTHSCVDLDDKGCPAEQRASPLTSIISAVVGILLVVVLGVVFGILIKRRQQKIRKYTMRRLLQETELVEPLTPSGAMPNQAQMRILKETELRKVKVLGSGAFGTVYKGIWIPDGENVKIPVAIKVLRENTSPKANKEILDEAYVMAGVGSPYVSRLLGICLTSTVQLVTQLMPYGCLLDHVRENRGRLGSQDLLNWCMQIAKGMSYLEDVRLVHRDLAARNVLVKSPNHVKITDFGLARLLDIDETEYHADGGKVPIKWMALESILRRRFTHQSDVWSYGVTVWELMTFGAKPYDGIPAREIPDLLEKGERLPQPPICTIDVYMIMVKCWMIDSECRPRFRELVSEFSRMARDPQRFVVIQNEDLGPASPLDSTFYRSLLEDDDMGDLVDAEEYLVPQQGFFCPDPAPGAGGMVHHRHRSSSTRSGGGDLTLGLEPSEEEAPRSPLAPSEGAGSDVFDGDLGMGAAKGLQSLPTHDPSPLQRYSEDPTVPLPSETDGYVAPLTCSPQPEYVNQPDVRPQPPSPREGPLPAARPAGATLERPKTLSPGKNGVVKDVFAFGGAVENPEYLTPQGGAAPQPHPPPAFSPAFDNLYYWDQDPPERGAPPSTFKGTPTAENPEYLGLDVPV
Sequence of RET (human) (P07949 whole entry, looked up): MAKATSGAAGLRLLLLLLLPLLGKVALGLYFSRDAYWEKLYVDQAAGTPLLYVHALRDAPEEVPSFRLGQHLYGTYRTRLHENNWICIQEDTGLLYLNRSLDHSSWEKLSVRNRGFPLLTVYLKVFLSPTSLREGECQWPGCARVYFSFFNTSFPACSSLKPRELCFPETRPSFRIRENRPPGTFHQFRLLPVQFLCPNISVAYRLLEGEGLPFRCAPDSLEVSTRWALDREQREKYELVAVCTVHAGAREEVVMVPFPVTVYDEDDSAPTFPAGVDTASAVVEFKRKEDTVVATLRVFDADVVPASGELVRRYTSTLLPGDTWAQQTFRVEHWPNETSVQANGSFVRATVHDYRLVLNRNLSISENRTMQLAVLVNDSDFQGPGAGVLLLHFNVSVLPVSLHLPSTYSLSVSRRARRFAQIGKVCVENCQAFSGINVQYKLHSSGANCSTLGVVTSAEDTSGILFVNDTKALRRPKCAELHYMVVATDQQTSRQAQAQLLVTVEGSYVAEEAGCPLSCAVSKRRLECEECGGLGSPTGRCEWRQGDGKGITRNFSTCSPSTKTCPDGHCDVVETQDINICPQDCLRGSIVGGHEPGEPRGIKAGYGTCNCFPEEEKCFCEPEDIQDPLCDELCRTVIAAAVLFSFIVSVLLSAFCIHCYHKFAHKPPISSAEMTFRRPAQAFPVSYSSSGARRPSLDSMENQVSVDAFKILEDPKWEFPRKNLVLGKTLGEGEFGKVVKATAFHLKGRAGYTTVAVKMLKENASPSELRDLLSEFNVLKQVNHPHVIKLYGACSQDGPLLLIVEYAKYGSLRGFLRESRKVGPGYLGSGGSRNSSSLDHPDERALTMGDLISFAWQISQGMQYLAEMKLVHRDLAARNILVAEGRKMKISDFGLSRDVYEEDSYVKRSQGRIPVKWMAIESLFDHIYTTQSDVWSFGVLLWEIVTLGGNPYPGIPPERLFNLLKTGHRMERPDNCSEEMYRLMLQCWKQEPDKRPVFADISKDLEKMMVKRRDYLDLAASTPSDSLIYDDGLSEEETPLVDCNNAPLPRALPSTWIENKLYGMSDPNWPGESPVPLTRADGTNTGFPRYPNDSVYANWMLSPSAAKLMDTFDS
Sequence of SGK3 (human) (Q96BR1 whole entry, looked up): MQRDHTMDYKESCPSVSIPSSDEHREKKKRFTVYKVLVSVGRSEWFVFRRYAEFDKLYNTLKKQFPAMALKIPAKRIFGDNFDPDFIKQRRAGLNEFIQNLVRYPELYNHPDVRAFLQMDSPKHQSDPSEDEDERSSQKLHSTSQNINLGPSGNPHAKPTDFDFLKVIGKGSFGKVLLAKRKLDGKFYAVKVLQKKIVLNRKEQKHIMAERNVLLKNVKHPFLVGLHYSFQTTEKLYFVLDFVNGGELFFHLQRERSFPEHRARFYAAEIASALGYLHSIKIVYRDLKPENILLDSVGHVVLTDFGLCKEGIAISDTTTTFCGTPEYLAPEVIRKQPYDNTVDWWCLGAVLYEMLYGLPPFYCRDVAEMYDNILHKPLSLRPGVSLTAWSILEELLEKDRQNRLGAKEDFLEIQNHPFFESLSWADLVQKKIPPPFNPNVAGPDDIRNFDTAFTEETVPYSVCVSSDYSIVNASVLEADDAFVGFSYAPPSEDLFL
Sequence of ADRBK2 (human) (P35626 whole entry, looked up): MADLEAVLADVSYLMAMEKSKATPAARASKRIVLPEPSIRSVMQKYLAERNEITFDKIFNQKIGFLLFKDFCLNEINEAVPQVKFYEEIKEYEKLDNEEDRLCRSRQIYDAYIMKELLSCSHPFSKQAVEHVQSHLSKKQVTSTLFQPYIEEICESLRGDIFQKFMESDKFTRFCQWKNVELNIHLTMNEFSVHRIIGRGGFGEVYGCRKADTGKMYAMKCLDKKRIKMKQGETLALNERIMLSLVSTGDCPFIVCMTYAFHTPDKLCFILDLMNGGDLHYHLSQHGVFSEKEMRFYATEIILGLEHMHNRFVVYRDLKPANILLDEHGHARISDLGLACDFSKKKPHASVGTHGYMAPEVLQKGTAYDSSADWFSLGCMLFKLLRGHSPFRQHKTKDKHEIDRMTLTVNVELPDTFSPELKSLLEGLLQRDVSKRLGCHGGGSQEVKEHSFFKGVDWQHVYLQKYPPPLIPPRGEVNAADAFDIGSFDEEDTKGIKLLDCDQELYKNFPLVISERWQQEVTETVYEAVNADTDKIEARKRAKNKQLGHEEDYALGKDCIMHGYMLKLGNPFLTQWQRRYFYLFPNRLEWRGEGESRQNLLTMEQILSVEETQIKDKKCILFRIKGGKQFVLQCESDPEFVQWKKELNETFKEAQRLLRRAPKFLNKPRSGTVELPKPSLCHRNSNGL
Sequence of ADRBK1 (human) (P25098 whole entry, looked up): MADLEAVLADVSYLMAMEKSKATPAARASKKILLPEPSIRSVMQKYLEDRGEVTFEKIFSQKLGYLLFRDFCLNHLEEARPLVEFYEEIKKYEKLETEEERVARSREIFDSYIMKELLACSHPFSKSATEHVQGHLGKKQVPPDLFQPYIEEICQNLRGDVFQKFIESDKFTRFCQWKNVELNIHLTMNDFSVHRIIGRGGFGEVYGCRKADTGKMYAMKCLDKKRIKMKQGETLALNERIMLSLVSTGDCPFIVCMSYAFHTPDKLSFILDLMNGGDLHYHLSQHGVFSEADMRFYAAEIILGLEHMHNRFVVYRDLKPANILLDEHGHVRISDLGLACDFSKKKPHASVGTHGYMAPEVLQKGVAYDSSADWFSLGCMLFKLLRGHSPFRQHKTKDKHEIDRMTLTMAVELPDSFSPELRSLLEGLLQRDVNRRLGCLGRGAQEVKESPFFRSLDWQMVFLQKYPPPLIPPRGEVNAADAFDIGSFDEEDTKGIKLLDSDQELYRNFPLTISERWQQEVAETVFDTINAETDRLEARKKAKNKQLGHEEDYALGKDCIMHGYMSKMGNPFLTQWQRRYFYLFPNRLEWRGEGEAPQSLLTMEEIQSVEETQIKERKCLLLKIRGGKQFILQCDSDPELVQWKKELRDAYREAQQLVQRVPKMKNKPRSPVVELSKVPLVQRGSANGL

Q: For `O=C1NC(=O)/C(=C\c2ccc3nccnc3c2)S1`, which residual activity (ACVR1 (human)) is on record?
A: 102%

Q: What about the residual activity (IKBKB (human)) of the same compound?
A: 96.1%

Q: What about the residual activity (ITK (human)) of the same compound?
A: 91.2%

Q: And the residual activity (PIM2 (human))?
A: 100%

Q: What about the residual activity (CDC42BPB (human)) of the same compound?
A: 91.3%

Q: And the residual activity (CHUK (human))?
A: 86.7%

Q: And the residual activity (STK38 (human))?
A: 99.6%

Q: What about the residual activity (ROCK2 (human)) of the same compound?
A: 91.3%

Q: And the residual activity (LRRK2 (human))?
A: 96%

Q: What about the residual activity (ULK1 (human)) of the same compound?
A: 100%

Q: What about the residual activity (PRKCI (human)) of the same compound?
A: 98.6%

Q: And the residual activity (DYRK1A (human))?
A: 21.8%

Q: And the residual activity (NEK9 (human))?
A: 111%

Q: What about the residual activity (CAMK1G (human)) of the same compound?
A: 105%

Q: And the residual activity (ADRBK2 (human))?
A: 111%

Q: And the residual activity (DAPK3 (human))?
A: 93.3%

Q: And the residual activity (TLK2 (human))?
A: 95.2%

Q: And the residual activity (ADRBK1 (human))?
A: 93.3%

Q: And the residual activity (CDK1 CCNB1 (human))?
A: 93.8%

Q: What about the residual activity (NTRK1 (human)) of the same compound?
A: 94.2%

Q: What about the residual activity (SGK3 (human)) of the same compound?
A: 94.3%

Q: What about the residual activity (STK3 (human)) of the same compound?
A: 104%

Q: And the residual activity (NEK6 (human))?
A: 109%

Q: What about the residual activity (PDPK1 (human)) of the same compound?
A: 104%

Q: And the residual activity (STK10 (human))?
A: 90.5%

Q: What about the residual activity (EPHB3 (human)) of the same compound?
A: 94.5%

Q: What about the residual activity (EPHA6 (human)) of the same compound?
A: 82.4%

Q: And the residual activity (PRKACG (human))?
A: 99.6%

Q: What about the residual activity (TNK2 (human)) of the same compound?
A: 91.4%

Q: And the residual activity (MAP2K1 (human))?
A: 89.5%

Q: And the residual activity (DYRK2 (human))?
A: 39.8%

Q: What about the residual activity (FGR (human)) of the same compound?
A: 96.8%

Q: And the residual activity (PAK1 (human))?
A: 96%

Q: And the residual activity (TXK (human))?
A: 96.8%

Q: What about the residual activity (ERBB2 (human)) of the same compound?
A: 107%

Q: What about the residual activity (ABL1 (human)) of the same compound?
A: 95.7%

Q: What about the residual activity (RET (human)) of the same compound?
A: 97.7%

Q: What about the residual activity (ULK3 (human)) of the same compound?
A: 102%

Q: And the residual activity (MYO3B (human))?
A: 83.8%

Q: And the residual activity (TSSK2 (human))?
A: 88.7%

Q: What about the residual activity (BRAF (human)) of the same compound?
A: 95.1%

Q: Which results are given for `Nc1nccc(-c2c(-c3ccc(F)cc3)ncn2C2CCNCC2)n1`?
A: residual activity (ACVR1 (human)): 86.5%; residual activity (IKBKB (human)): 104%; residual activity (ITK (human)): 90.5%; residual activity (PIM2 (human)): 100%; residual activity (CDC42BPB (human)): 101%; residual activity (CHUK (human)): 101%; residual activity (STK38 (human)): 99.8%; residual activity (ROCK2 (human)): 103%; residual activity (LRRK2 (human)): 99.9%; residual activity (ULK1 (human)): 95.3%; residual activity (PRKCI (human)): 98.5%; residual activity (DYRK1A (human)): 96.3%; residual activity (NEK9 (human)): 100%; residual activity (CAMK1G (human)): 99.3%; residual activity (ADRBK2 (human)): 97.6%; residual activity (DAPK3 (human)): 96.5%; residual activity (TLK2 (human)): 95.1%; residual activity (ADRBK1 (human)): 99.7%; residual activity (CDK1 CCNB1 (human)): 96.8%; residual activity (NTRK1 (human)): 100%; residual activity (SGK3 (human)): 97.5%; residual activity (STK3 (human)): 103%; residual activity (NEK6 (human)): 104%; residual activity (PDPK1 (human)): 103%; residual activity (STK10 (human)): 90.3%; residual activity (EPHB3 (human)): 101%; residual activity (EPHA6 (human)): 78%; residual activity (PRKACG (human)): 105%; residual activity (TNK2 (human)): 98%; residual activity (MAP2K1 (human)): 98.2%; residual activity (DYRK2 (human)): 95.9%; residual activity (FGR (human)): 95.9%; residual activity (PAK1 (human)): 97.4%; residual activity (TXK (human)): 99.1%; residual activity (ERBB2 (human)): 93.7%; residual activity (ABL1 (human)): 101%; residual activity (RET (human)): 89.4%; residual activity (ULK3 (human)): 95.5%; residual activity (MYO3B (human)): 97.9%; residual activity (TSSK2 (human)): 100%; residual activity (BRAF (human)): 103%
